Where no end group is shown, it is not given here.
T1: PTH/PTHrP receptor (Homo sapiens, UniProt Q03431)
T1 construct: expressed in transfected cells; host or cells: COS-7 cells, transient transfection, vector pcDNA-1
T1 sequence (Q03431 27-593): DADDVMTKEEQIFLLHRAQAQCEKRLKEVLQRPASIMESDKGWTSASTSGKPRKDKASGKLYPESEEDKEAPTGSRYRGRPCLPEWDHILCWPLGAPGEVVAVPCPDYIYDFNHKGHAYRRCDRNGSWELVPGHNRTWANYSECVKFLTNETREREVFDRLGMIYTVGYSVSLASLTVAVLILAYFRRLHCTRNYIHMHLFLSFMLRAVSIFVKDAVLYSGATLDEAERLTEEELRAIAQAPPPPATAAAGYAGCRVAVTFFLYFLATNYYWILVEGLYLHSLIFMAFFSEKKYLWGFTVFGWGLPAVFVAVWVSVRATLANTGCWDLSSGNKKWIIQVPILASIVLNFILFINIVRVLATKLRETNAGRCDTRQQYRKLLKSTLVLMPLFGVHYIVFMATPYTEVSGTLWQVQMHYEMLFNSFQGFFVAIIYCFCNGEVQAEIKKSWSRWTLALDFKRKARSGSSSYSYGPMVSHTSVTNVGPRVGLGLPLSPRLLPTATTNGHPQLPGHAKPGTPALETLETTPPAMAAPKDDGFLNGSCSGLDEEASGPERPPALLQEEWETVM

T2: human PTH/PTHrP receptor (human, UniProt Q03431 27-593)
T2 construct: whole, on cells; Transiently expressed on COS-7 cells
T2 sequence (looked up): T1 sequence (Q03431 27-593)

B1: Hybrid-3 hPTHrP-(1-23)/[Y34]hPTH-(24-34)NH2 (peptide)
peptide: AVSEHQLLHDKGKSIQDLRRRFFLRKKLQDVHNY-NH2
notes: Synthetic PTH/PTHrP hybrid ligand; also called PTHrP-(1-23)/PTH-(24-34)

Legend:
PTH/PTHrP receptor [1] = target: T1, PTH/PTHrP receptor; experiment: Competition radioligand binding, COS-7 cells transfected with human PTH/PTHrP receptor; details: for Binding in words, PTH/PTHrP receptor: competition with radioligand; for Binding affinity, fold weaker than PTH-(1-34): PTH/PTHrP receptor
Method: (§1) The cDNAs encoding the human PTH/PTHrP receptor (Schipani, E. et al., Endocrinology 132:2157-2165 (1993)) and the human PTH-2 receptor (Usdin, T. et al., J. Biol. Chem. 270:15455-15458 (1995)) were carried on the expression vectors pcDNA-1 and pcDNAI/Amp (InVitrogen, San Diego, Calif.), respectively. COS-7 cells were cultured and transfected as described previously (Lee, C. et al., Mol. Endocrinol. 9:1269-1278 (1995)). Cells were transfected in 24-well plates using plasmid DNA (200 ng/well) purified by cesium chloride/ethidium bromide gradient centrifugation. Ligand binding and cAMP accumulation assays were performed three days after transfection, by which time the cell density reached 500,000±100,000 cells/well.
(§2) Binding reactions were performed as described previously. Id. Each well (final volume: […]) contained 26 fmole of ^125I-[Nle^8,21,Tyr^34]rPTH(1-34)NH2 (100,000 CPM) and various amounts (0.4-300 pmole) of an unlabeled competitor ligand, both diluted in binding buffer (50 mM Tris-HCl, pH 7.7, 100 mM NaCl, 5 mM KCl, 2 mM CaCl, 5% heat-inactivated horse serum, 0.5% heat-inactivated fetal bovine serum). Incubations were at room temperature for 2 hours, except for experiments involving Scatchard analysis, which were performed at 4° C. for 6 hours. At the end of the binding reaction, the cells were rinsed 3 times with 0.5 ml of binding buffer, lysed with 0.5 ml of 5M NaOH, and the entire lysate was counted. Nonspecific binding of tracer (NSB), determined in wells containing 1 μM of [NleTyr^8,21,Tyr^34]rPTH-(1-34)NH2, was ˜1% of total counts added. Maximum specific binding (B0) was calculated as the total radioactivity bound to cells in the absence of unlabeled PTH ligand, minus NSB. […] For Scatchard analyses, homologous competition binding studies were performed that used ^125I-[-NleTyr^8,21,Tyr^34]rPTH-(1-34)NH2 (26 fmole/well) and varying amounts (1.2-300 pmol) of the same unlabeled ligand. Estimates of the number of receptors/cell derived from these studies assumed a single class of binding sites and a transfection efficiency of 20% (Abou-Samra, A. B. et al., Proc. Natl. Acad. Sci (USA) 89:2732-2736 (1992)).

PTH-2 receptor [2] = target: T3, PTH-2 receptor (Homo sapiens, UniProt P49190); experiment: Competition radioligand binding, COS-7 cells transfected with human PTH-2 receptor; details: for Binding in words, PTH-2 receptor: competition with radioligand
T3 construct: expressed in transfected cells; host or cells: COS-7 cells, transient transfection, vector pcDNAI/Amp
T3 sequence (P49190 25-550): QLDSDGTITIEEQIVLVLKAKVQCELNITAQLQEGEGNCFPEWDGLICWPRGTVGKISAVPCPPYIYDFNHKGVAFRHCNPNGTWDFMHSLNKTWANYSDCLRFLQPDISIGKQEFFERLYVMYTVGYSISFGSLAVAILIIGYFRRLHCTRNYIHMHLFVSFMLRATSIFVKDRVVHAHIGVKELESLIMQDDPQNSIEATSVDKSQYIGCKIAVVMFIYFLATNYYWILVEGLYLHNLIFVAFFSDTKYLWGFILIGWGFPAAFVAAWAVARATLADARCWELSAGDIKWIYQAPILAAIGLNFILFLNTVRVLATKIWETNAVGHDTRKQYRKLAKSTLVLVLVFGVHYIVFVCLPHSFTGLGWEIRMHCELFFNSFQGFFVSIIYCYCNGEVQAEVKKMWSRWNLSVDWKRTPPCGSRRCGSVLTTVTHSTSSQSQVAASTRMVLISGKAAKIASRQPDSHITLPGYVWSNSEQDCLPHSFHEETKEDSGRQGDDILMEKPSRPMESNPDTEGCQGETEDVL
Method: as §1, §2

PTH-2 receptor [3] = target: T3, PTH-2 receptor; experiment: Ligand-induced intracellular cAMP accumulation, COS-7 cells expressing human PTH-2 receptor; type: cell-based; details: for cAMP agonist activity in words, PTH-2 receptor: COS-7 cells; for cAMP accumulation Maximum, PTH-2 receptor: highest level of cAMP attained, basal 5.4 ± 0.3 not subtracted, 1h at room temperature
Method: as §1
(§3) Transfected COS-7 cells were rinsed with […] of binding buffer. 200 μl of IBMX buffer (DMEM containing 2 mM IBMX, 1 mg/ml bovine serum albumin, 35 mM Hepes-NaOH, pH 7.4) and […] of binding buffer or binding buffer containing various amounts of a PTH or PTHrP analog were then added. The plates were incubated for 60 minutes at room temperature. The buffer was then withdrawn and the cells lysed by placing the plates on powdered dry ice and adding 0.5 ml of 50 mM HCl. The acid lysate was diluted 1/30 in dH2O, and an aliquot (5-50 μl) analyzed for cAMP content by radioimmunoassay. […] The cells were then incubated for 30 minutes at room temperature, and the resulting intracellular cAMP was measured by RIA. Data were analyzed using the AssayZap software (Elsevier Science Publishers BV, Cambridge, United Kingdom).

PTH/PTHrP receptor [4] = target: T1, PTH/PTHrP receptor; experiment: Ligand-induced intracellular cAMP accumulation, COS-7 cells expressing human PTH/PTHrP receptor; type: cell-based; details: for cAMP accumulation Maximum, PTH/PTHrP receptor: highest level of cAMP attained, basal 4.6 ± 0.2 not subtracted, 1h at room temperature; for cAMP agonist activity in words, PTH/PTHrP receptor: COS-7 cells
Method: as §1, §3

human PTH/PTHrP receptor = target: T2, human PTH/PTHrP receptor; experiment: radioligand competition (tracer 125I-[Nle8,21,Tyr34]rPTH-(1-34)NH2) on transfected COS-7 cells, RT 2 h
Method: Assays were performed for 2 hours at room temperature. Data are the mean (± s.e.m.) of IC$50$ values obtained from the number of experiments indicated (n).
Binding reactions were performed as described previously. Id. […] Incubations were at room temperature for 2 hours, except for experiments involving Scatchard analysis, which were performed at 4° C. for 6 hours. At the end of the binding reaction, the cells were rinsed 3 times with 0.5 ml of binding buffer, lysed with 0.5 ml of 5M NaOH, and the entire lysate was counted. […] Estimates of the number of receptors/cell derived from these studies assumed a single class of binding sites and a transfection efficiency of 20% (Abou-Samra, A. B. et al., *Proc. Natl. Acad. Sci* (*USA*) 89:2732–2736 (1992)).

human PTH-2 receptor = human PTH-2 receptor (human, UniProt P49190 25-550); experiment: cell-based or functional assay
Chain of human PTH-2 receptor (P49190 25-550): as above

[5] = COS-7 cells, radioligand 125I-[Nle8,21,Y34]rPTH-(1-34)NH2, 2 hours at room temperature, mean ± s.e.m.

Molecule | cAMP accumulation Maximum, PTH-2 receptor (PTH-2 receptor [3]) [pmoles/well] | cAMP accumulation Maximum, PTH/PTHrP receptor (PTH/PTHrP receptor [4]) [pmoles/well] | cAMP accumulation EC50 (human PTH-2 receptor) [µM] | cAMP accumulation Maximum (human PTH-2 receptor) [pmoles/well] | other results
LNSMERVEFLRKKLQDVHNY-NH2 [[F23, Y34]hPTH-(15-34)NH2] |  |  |  |  | IC50 (PTH/PTHrP receptor [1]; [5]): > 10 µM; IC50 (PTH-2 receptor [2]; [5]): > 10 µM
hpTHrP-(1-14)/[Y34]hPTH-(15-34)NH2 [Hybrid-1] | 5.3 ± 0.6 | 140 ± 17 |  |  | cAMP agonist activity in words, PTH-2 receptor (PTH-2 receptor [3]): weak activity
hPTHrP-(1-23)/[Y34]hPTH-(24-34)NH2 [Hybrid 3] | 11 ± 1 | 95 ± 9 |  |  | 
[Ile^5, Trp^23]PTHrP-(1-36) [[15, W23, Y36]hPTHrP-(1-36)NH2] | 65 ± 7 | 109 ± 10 |  |  | cAMP agonist activity in words, PTH-2 receptor (PTH-2 receptor [3]): as potent and efficacious as PTH-(1-34)
[H5, Y34]hPTH-(1-34)NH2 | 10 ± 1 | 116 ± 19 |  |  | Binding in words, PTH/PTHrP receptor (PTH/PTHrP receptor [1]; COS-7 cells): competed very poorly; cAMP agonist activity in words, PTH/PTHrP receptor (PTH/PTHrP receptor [4]): efficiently stimulated cAMP formation
hPTH-(1-14)/[Y34]hPTHrP-(15-34)NH2 [Hybrid-2] |  | 123 ± 28 |  |  | 
hPTHrP-(1-21)/[Y34]hPTH-(22-34)NH2 [Hybrid-4] | 6.7 ± 0.6 | 107 ± 17 |  |  | 
[H5, F23, Y34]hPTH-(1-34)NH2 | 7.1 ± 0.9 | 110 ± 19 |  |  | 
[Y36]hPTHrP-(15-36)NH2 |  |  |  |  | Binding in words, PTH-2 receptor (PTH-2 receptor [2]; COS-7 cells): competed weakly
[F23, Y34]hPTH-(1-34)NH2 | 50 ± 8 | 104 ± 16 |  |  | Binding affinity, fold weaker than PTH-(1-34) (PTH/PTHrP receptor [1]): 2-3 fold; cAMP agonist activity in words, PTH-2 receptor (PTH-2 receptor [3]): nearly a full agonist; Reduction in binding potency compared to unsubstituted PTH-(1-34) (PTH-2 receptor [2]; PTH-2 receptor): 28 fold
[Tyr^36]hPTHrP-(1-36)NH2 [[Y36]hPTHrP-(1-36)NH2, reference compound] | 11 ± 1 |  |  |  | Binding affinity, fold weaker than PTH-(1-34) (PTH/PTHrP receptor [1]): six-fold weaker binding; Binding in words, PTH/PTHrP receptor (PTH/PTHrP receptor [1]; COS-7 cells): fully inhibited binding of the radioligand; cAMP agonist activity in words, PTH-2 receptor (PTH-2 receptor [3]): nearly inactive; cAMP agonist activity in words, PTH/PTHrP receptor (PTH/PTHrP receptor [4]): full and potent agonists; Binding potency, fold weaker than PTH-(1-34) (PTH-2 receptor [2]; PTH-2 receptor): more than 100 fold; Binding in words, PTH-2 receptor (PTH-2 receptor [2]; COS-7 cells): bound poorly
[Ile^5]PTHrP-(1-36) [[15, Y36]hPTHrP-(1-36)NH2] | 80 ± 5 |  |  |  | cAMP agonist activity in words, PTH-2 receptor (PTH-2 receptor [3]): full agonist; cAMP EC50, fold higher than that of PTH-(1-34) (PTH-2 receptor [3]; PTH-2 receptor): 12 fold
hpTHrP-(1-18)/[Y34]hpTH-(19-34)NH2 [Hybrid-5] | 6.2 ± 0.4 | 133 ± 14 |  |  | 
IQDLRRRFWLHHLIAEIHTAEY-NH2 [[W23, Y36]hPTHrP-(15-36)NH2] |  |  |  |  | IC50 (human PTH/PTHrP receptor): > 10 µM
IQDLRRRFFLHHLIAEIHTAEY-NH2 [[Y36]hPTHrP-(15-36)NH2] |  |  |  |  | IC50 (human PTH/PTHrP receptor): > 10 µM
IQDLRRREWLHHLIAEIHTAEY-NH2 [[E22, W23, Y36]hPTHrP-(15-36)NH2] |  |  |  |  | IC50 (human PTH/PTHrP receptor): > 10 µM
AVSEHQLLHDKGKSLNSMERVEWLRKKLQDVHNY-NH2 [Hybrid-1 hPTHrP-(1-14)/[Y34]hPTH-(15-34)NH2] |  |  | > 1 | 5.3 | 
SVSEIQLMHNLGKHLNSMERVEWLRKKLQDVHNY-NH2 [[Tyr^34]hPTH-(1-34)NH2] |  |  | 0.0006 | 81 | 
SVSEHQLMHNLGKHLNSMERVEWLRKKLQDVHNY-NH2 [[H5, Y34]hPTH-(1-34)NH2] |  |  | > 1 | 10 | 
SVSEHQLMHNLGKHLNSMERVEFLRKKLQDVHNY-NH2 [[H5, F23, Y34]hPTH-(1-34)NH2] |  |  | > 1 | 7.1 | 
AVSEIQLLHDKGKSIQDLRRRFFLHHLIAEIHTAEY-NH2 [[I5, Y36]hPTHrP-(1-36)NH2] |  |  | 0.007 | 80 | 
AVSEHQLLHDKGKSIQDLRRREWLRKKLQDVHNY-NH2 [Hybrid-4 hPTHrP-(1-21)/[Y34]hPTH-(22-34)NH2] |  |  | > 1 | 6.7 | 
B1 |  |  | > 1 | 11 | IC50 (human PTH/PTHrP receptor): 1 µM

From patent publication US6362163B1, “Parathyroid hormone-related peptide analogs” (The General Hospital Corporation, priority 1996, dated 2002)
